Test results: ChEMBL document CHEMBL5055665, “Discovery of the Triazolo[1,5-a]Pyrimidine-Based Derivative WS-898 as a Highly Efficacious and Orally Bioavailable ABCB1 Inhibitor Capable of Overcoming Multidrug Resistance” (J Med Chem, 2021)

What was measured:
[1] = test system: SW-620; assay: Reversal of resistance to paclitaxel-induced cytotoxicity in human SW-620/AD300 cells assessed as reversal fold at 1 uM preincubated for 4 hrs followed by paclitaxel addition and measured after 72 hrs by MTT assay relative to paclitaxel; format: functional; conditions: time 76 hrs
[2] = test system: SW-620; assay: Reversal of resistance to paclitaxel-induced cytotoxicity in human SW-620/AD300 cells assessed as reduction in paclitaxel IC50 at 1 uM preincubated for 4 hrs followed by paclitaxel addition and measured after 72 hrs by MTT assay (reference value: 4.23 +/- 0.50 uM); format: functional, cell-based
[3] = test system: SW-620; assay: Reversal of resistance to paclitaxel-induced cytotoxicity in human SW-620/AD300 cells assessed as reduction in paclitaxel IC50 at 5 uM preincubated for 4 hrs followed by paclitaxel addition and measured after 72 hrs by MTT assay (reference value: 4.23 +/- 0.50 uM); format: functional, cell-based
[4] = test system: SW-620; assay: Reversal of resistance to paclitaxel-induced cytotoxicity in human SW-620/AD300 cells assessed as reversal fold at 5 uM preincubated for 4 hrs followed by paclitaxel addition and measured after 72 hrs by MTT assay relative to paclitaxel; format: functional; conditions: time 76 hrs
[5] = test system: SW-620; assay: Reversal of resistance to paclitaxel-induced cytotoxicity in human SW-620/AD300 cells assessed as reversal fold at 10 uM preincubated for 4 hrs followed by paclitaxel addition and measured after 72 hrs by MTT assay relative to paclitaxel; format: functional; conditions: time 76 hrs
[6] = test system: SW-620; assay: Reversal of resistance to paclitaxel-induced cytotoxicity in human SW-620/AD300 cells assessed as reduction in paclitaxel IC50 at 10 uM preincubated for 4 hrs followed by paclitaxel addition and measured after 72 hrs by MTT assay (reference value: 4.23 +/- 0.50 uM); format: functional, cell-based
[7] = test system: SW-620; assay: Reversal of resistance to paclitaxel-induced cytotoxicity in human SW-620/AD300 cells assessed as reduction in paclitaxel IC50 at 2 uM preincubated for 4 hrs followed by paclitaxel addition and measured after 72 hrs by MTT assay (reference value: 4.23 +/- 0.50 uM); format: functional, cell-based
[8] = test system: SW-620; assay: Reversal of resistance to paclitaxel-induced cytotoxicity in human SW-620/AD300 cells assessed as reversal fold at 2 uM preincubated for 4 hrs followed by paclitaxel addition and measured after 72 hrs by MTT assay relative to paclitaxel; format: functional; conditions: time 76 hrs
[9] = test system: SW-620; assay: Reversal of resistance to paclitaxel-induced cytotoxicity in human SW-620/AD300 cells assessed as reversal fold at 4 uM preincubated for 4 hrs followed by paclitaxel addition and measured after 72 hrs by MTT assay relative to paclitaxel; format: functional; conditions: time 76 hrs
[10] = test system: SW-620; assay: cells; conditions: Homo sapiens

Cc1cc(Nc2ccc(C(=O)/C=C/c3cccc(Br)n3)cc2)n2nc(SCc3nc4ccccc4[nH]3)nc2n1
fold change (FC) [1]: 72.93 | IC50 [2]: 0.058 µM

Cc1cc(Nc2ccc(C(=O)/C=C/c3ccc4ccccc4c3)cc2)n2nc(SCc3ccccc3[N+](=O)[O-])nc2n1
IC50 [3]: 0.96 µM | fold change (FC) [4]: 4.36

Cc1cc(Nc2ccc(C(=O)/C=C/c3ccc4ccccc4c3)cc2)n2nc(SCc3ccc(Br)cc3)nc2n1
IC50 [3]: 0.37 µM | fold change (FC) [4]: 11.43

O=C(/C=C/c1ccc2ccccc2c1)c1ccc(Nc2cc(-c3ccccc3)nc3ncnn23)cc1
fold change (FC) [5]: 5.35 | IC50 [6]: 0.79 µM

Cc1cc(Nc2ccc(C(=O)/C=C/c3ccc4ccccc4c3)cc2)n2nc(SCc3ccc([N+](=O)[O-])cc3)nc2n1
IC50 [3]: 1.13 µM | fold change (FC) [4]: 3.74

Cc1cc(Nc2ccc(C(=O)/C=C/c3cccc(F)c3)cc2)n2nc(SCc3nc4ccccc4[nH]3)nc2n1
IC50 [7]: 0.59 µM | fold change (FC) [8]: 7.17

Cc1ccc(/C=C/C(=O)c2ccc(Nc3cc(C)nc4nc(SCc5nc6ccccc6[nH]5)nn34)cc2)cc1
IC50 [7]: 1.52 µM | fold change (FC) [8]: 2.78

Cc1cc(Nc2ccc(C(=O)/C=C/c3ccc4ccccc4c3)cc2)n2nc(SCc3cccc4ccccc34)nc2n1
IC50 [7]: 0.068 µM | fold change (FC) [8]: 62.21

Cc1cc(Nc2ccc(C(=O)/C=C/c3ccc4ccccc4c3)cc2)n2nc(SCC(=O)c3ccccc3)nc2n1
IC50 [7]: 0.19 µM | fold change (FC) [8]: 22.26

Cc1cc(Nc2ccc(C(=O)/C=C/c3ccc4ccccc4c3)cc2)n2nc(SCc3c(Cl)cccc3Cl)nc2n1
fold change (FC) [9]: 6.13 | IC50 [10]: 0.69 µM

Cc1cc(Nc2ccc(C(=O)/C=C/c3ccc(OC(F)(F)F)c(OC(F)(F)F)c3)cc2)n2nc(SCc3nc4ccccc4[nH]3)nc2n1
fold change (FC) [1]: 35.25 | IC50 [2]: 0.12 µM

Cc1cc(Nc2ccc(C(=O)/C=C/c3ccc4ccccc4c3)cc2)n2ncnc2n1
fold change (FC) [5]: 5.79 | IC50 [6]: 0.73 µM

Cc1cc(Nc2ccc(C(=O)/C=C/c3ccc(F)cc3)cc2)n2nc(SCc3nc4ccccc4[nH]3)nc2n1
IC50 [7]: 0.085 µM | fold change (FC) [8]: 49.8

Cc1cc(Nc2ccc(C(=O)/C=C/c3ccc4c(c3)OC(F)(F)O4)cc2)n2nc(SCc3nc4ccccc4[nH]3)nc2n1
fold change (FC) [1]: 17.63 | IC50 [2]: 0.24 µM

COc1ccc(CSc2nc3nc(C)cc(Nc4ccc(C(=O)/C=C/c5ccc6ccccc6c5)cc4)n3n2)cc1
IC50 [3]: 0.25 µM | fold change (FC) [4]: 16.92

Cc1cc(Nc2ccc(C(=O)/C=C/c3ccc4ccccc4c3)cc2)n2nc(SCc3ccc(C(F)(F)F)cc3)nc2n1
fold change (FC) [5]: 2.92 | IC50 [6]: 1.45 µM

Cc1cc(Nc2ccc(C(=O)/C=C/c3ccc(C(F)(F)F)cc3)cc2)n2nc(SCc3nc4ccccc4[nH]3)nc2n1
IC50 [7]: 1.85 µM | fold change (FC) [8]: 2.29

Cc1cc(Nc2ccc(C(=O)/C=C/c3ccc4ccccc4c3)cc2)n2nc(SCc3ccccc3)nc2n1
IC50 [3]: 0.3 µM | fold change (FC) [4]: 14.1

COc1ccc(/C=C/C(=O)c2ccc(Nc3cc(C)nc4nc(SCc5nc6ccccc6[nH]5)nn34)cc2)cc1
IC50 [7]: 0.17 µM | fold change (FC) [8]: 24.88

CCCSc1nc2nc(C)cc(Nc3ccc(C(=O)/C=C/c4ccc5ccccc5c4)cc3)n2n1
fold change (FC) [5]: 3.95 | IC50 [6]: 1.07 µM

Cc1cc(Nc2ccc(C(=O)/C=C/c3ccccc3)cc2)n2nc(SCc3nc4ccccc4[nH]3)nc2n1
IC50 [7]: 0.13 µM | fold change (FC) [8]: 32.54

Cc1cc(Nc2ccc(C(=O)/C=C/c3ccc(Cl)cc3)cc2)n2nc(SCc3nc4ccccc4[nH]3)nc2n1
IC50 [7]: 0.23 µM | fold change (FC) [8]: 18.39

Cc1cc(Nc2ccc(C(=O)/C=C/c3ccc(OC(F)(F)F)cc3)cc2)n2nc(SCc3nc4ccccc4[nH]3)nc2n1
IC50 [7]: 0.22 µM | fold change (FC) [8]: 19.5

Cc1cc(Nc2ccc(C(=O)/C=C/c3ccc4ccccc4c3)cc2)n2nc(SCc3cccc(Br)c3)nc2n1
IC50 [3]: 0.27 µM | fold change (FC) [4]: 15.67

Cc1cc(Nc2ccc(C(=O)/C=C/c3ccc4ccccc4c3)cc2)n2nc(SCc3ccccc3Br)nc2n1
IC50 [3]: 0.42 µM | fold change (FC) [4]: 10.07

Cc1cc(Nc2ccc(C(=O)/C=C/c3ccc(Br)cn3)cc2)n2nc(SCc3nc4ccccc4[nH]3)nc2n1
fold change (FC) [1]: 39.09 | IC50 [2]: 0.11 µM

Cc1cc(Nc2ccc(C(=O)/C=C/c3ccc(-n4cccn4)cc3)cc2)n2nc(SCc3nc4ccccc4[nH]3)nc2n1
IC50 [7]: 0.34 µM | fold change (FC) [8]: 12.44

O[C@@H](COc1cccc2ncccc12)CN1CCN([C@@H]2c3ccccc3[C@@H]3[C@H](c4ccccc42)C3(F)F)CC1 [ZOSUQUIDAR]
IC50 [7]: 0.059 µM | fold change (FC) [8]: 71.1

Cc1cc(Nc2ccc(C(=O)/C=C/c3ccccc3Cl)cc2)n2nc(SCc3nc4ccccc4[nH]3)nc2n1
IC50 [7]: 0.68 µM | fold change (FC) [8]: 6.22

Cc1ccc(CSc2nc3nc(C)cc(Nc4ccc(C(=O)/C=C/c5ccc6ccccc6c5)cc4)n3n2)cc1
IC50 [3]: 0.88 µM | fold change (FC) [4]: 4.81

Cc1cc(Nc2ccc(C(=O)/C=C/c3cccs3)cc2)n2nc(SCc3nc4ccccc4[nH]3)nc2n1
IC50 [7]: 0.82 µM | fold change (FC) [8]: 5.15

C=CCSc1nc2nc(C)cc(Nc3ccc(C(=O)/C=C/c4ccc5ccccc5c4)cc3)n2n1
fold change (FC) [5]: 4.6 | IC50 [6]: 0.92 µM

COc1ccc(/C=C/C(=O)c2ccc(Nc3cc(C)nc4nc(SCc5nc6ccccc6[nH]5)nn34)cc2)cc1F
IC50 [7]: 0.14 µM | fold change (FC) [8]: 30.21

COc1cc(/C=C/C(=O)c2ccc(Nc3cc(C)nc4nc(SCc5nc6ccccc6[nH]5)nn34)cc2)cc(OC)c1OC
fold change (FC) [1]: 56.4 | IC50 [2]: 0.075 µM

Cc1cc(Nc2ccc(C(=O)/C=C/c3ccc4ccccc4c3)cc2)n2nc(SCc3cccc([N+](=O)[O-])c3)nc2n1
IC50 [3]: 0.79 µM | fold change (FC) [4]: 5.35

Cc1cc(Nc2ccc(C(=O)/C=C/c3ccc(Br)cc3)cc2)n2nc(SCc3nc4ccccc4[nH]3)nc2n1
IC50 [7]: 0.29 µM | fold change (FC) [8]: 14.59

COc1cc(OC)c(/C=C/C(=O)c2ccc(Nc3cc(C)nc4nc(SCc5nc6ccccc6[nH]5)nn34)cc2)c(OC)c1
fold change (FC) [1]: 16.27 | IC50 [2]: 0.26 µM

Cc1cc(Nc2ccc(C(=O)/C=C/c3cccc(Cl)c3)cc2)n2nc(SCc3nc4ccccc4[nH]3)nc2n1
IC50 [7]: 0.4 µM | fold change (FC) [8]: 10.58

Cc1cc(Nc2ccc(C(=O)/C=C/c3ccc4ccccc4c3)cc2)n2nc(SCc3ccc(F)cc3)nc2n1
IC50 [3]: 0.32 µM | fold change (FC) [4]: 13.22

Cc1cc(Nc2ccc(C(=O)/C=C/c3ccccc3F)cc2)n2nc(SCc3nc4ccccc4[nH]3)nc2n1
IC50 [7]: 0.25 µM | fold change (FC) [8]: 16.92

C#CCSc1nc2nc(C)cc(Nc3ccc(C(=O)/C=C/c4ccc5ccccc5c4)cc3)n2n1
fold change (FC) [9]: 4.86 | IC50 [10]: 0.87 µM

Cc1cc(Nc2ccc(C(=O)/C=C/c3ccc4ccccc4c3)cc2)n2nc(SC(=O)c3csc4ccc(Cl)cc34)nc2n1
IC50 [7]: 0.035 µM | fold change (FC) [8]: 120.86

Cc1cc(Nc2ccc(C(=O)/C=C/c3ccc4ccccc4c3)cc2)n2nc(SCc3ccccc3C(F)(F)F)nc2n1
IC50 [3]: 1.24 µM | fold change (FC) [4]: 3.41

Cc1cc(Nc2ccc(C(=O)/C=C/c3ccc4ccccc4c3)cc2)n2nc(SCc3ccc(Cl)cc3)nc2n1
IC50 [3]: 0.57 µM | fold change (FC) [4]: 7.42

Cc1cc(Nc2ccc(C(=O)/C=C/c3ccc4ccccc4c3)cc2)n2nc(SCc3cccc(C(F)(F)F)c3)nc2n1
IC50 [3]: 2.07 µM | fold change (FC) [4]: 2.04
